Data from PubChem BioAssay AID1963868 (Molecular Pharmacology Branch, DTP, NCI, 2024).
“And” between values parts separate entries of the source, which are not always exact repeats. Equal values may be shown once.

System: KRAS PDC tumor spheroids (HUVEC+MSC), viability
Experiment: Anticancer human tumor 254851-301-R-J1-PDC patient-derived colon carcinoma cell line growth inhibition [KRAS2]
Conditions: for viability, T/C: stronger effect = lower value
Source text: Multicellular complex tumor spheroid response to RAS pathway inhibitors in combination with a targeted agents in patient-derived cell lines with oncogenic KRAS variants from multiple cancer types
A high-throughput screen of multi-cell type tumor spheroids was designed to identify active combinations of targeted small molecules and KRAS pathway inhibitors. Complex spheroids include a stromal component modeled by human endothelial cells (HUVEC) and fibroblasts modeled by human mesenchymal stem cells (MSCs). The concentration ranges selected for each drug and investigational agent were based upon clinically achievable concentrations if the clinical Cmax of the agent was known.
Compounds. The drugs and investigational agents: BI-3406 (NSC825286), BAY-293 (NSC824723), batoprotafib (TNO155; NSC825523), sotorasib (AMG 510; NSC818433), MRTX1257 (NSC819558), elimusertib (BAY 1895344; NSC800525), molibresib (GSK525762; NSC774829), temuterkib (LY3214996; NSC803410), venetoclax (NSC766270), alisertib (NSC759677), olaparib (NSC753686), talazoparib (NSC767125), erdafitinib (NSC781556), ipatasertib (NSC767898), cabozantinib (NSC761068), nintedanib (NSC756659), abemaciclib (NSC768073), docetaxel (NSC628503), trametinib (NSC758246), and sapanisertib (NSC764658) were obtained from the National Cancer Institute (NCI) Developmental Therapeutics Program Chemical Repository. The FDA-approved anticancer drug set is available from the Developmental Therapeutics Program. […] The stock solutions were prepared in dimethyl sulfoxide (DMSO, Sigma-Aldrich, St. Louis, MO, cat. D2650) at 800-fold the tested concentration and stored at -70 degrees C prior to their use. All drugs and investigational agents were tested over a range starting from a high concentration at or near the clinical Cmax and decreasing in half-log increments. If the clinical Cmax for an agent had not been determined, the highest concentration tested was 10 microM.
Cell Culture. All cells were maintained in an incubator at 37 degrees C and 5% CO2 with 95% humidity. The PDC lines were cultured according to standard operating procedures established by the NCI PDMR (https://pdmr.cancer.gov/sops/default.htm). Briefly, all PDCs were thawed and cultured in Matrigel-coated flasks prepared with a working solution of 1X Ham's F-12 nutrient mix, without supplementation (Invitrogen, Waltham, MA, cat. 11765054), 100 U/mL penicillin-streptomycin (Invitrogen, cat. 15140122), and 2.5% Matrigel (Corning Inc., Corning, NY, cat. 354248) for the first three passages. All PDCs were cultured in complete DMEM/F-12 media containing advanced DMEM/F-12 (Invitrogen, cat. 12634028), 4.9% defined fetal bovine serum, heat inactivated (HyClone Laboratories Inc., Logan, UT, cat. SH30070.03HI), 389 ng/mL hydrocortisone (Sigma-Aldrich, cat. H4001), 9.7 ng/mL human EGF recombinant protein (Invitrogen, cat. PHG0313), 23.4 microg/mL adenine (Sigma-Aldrich, cat. A2786), 97.3 U/mL penicillin-streptomycin (Invitrogen, cat. 15140122), 1.9 mM L-glutamine (Invitrogen, cat. 25030081), and 9.7 microM Y-27632 dihydrochloride (Tocris Bioscience, Bristol, United Kingdom, cat. 1254). The PDCs were cultured in complete DMEM/F12 media without 9.7 microM Y-27632 dihydrochloride for at least two passages prior to the screen. The established cell line HOP-62 was cultured in RPMI 1640 medium, HEPES (Invitrogen, cat. 22400105) with 10% defined fetal bovine serum (HyClone Laboratories Inc., cat. SH30070.03) and 2 mM L-glutamine (Invitrogen, cat. 25030081). The pooled donor HUVEC were cultured in endothelial cell growth medium 2 (PromoCell, Heidelberg, Germany, cat. C-22011) and the hMSC were cultured in mesenchymal stem cell growth medium 2 (PromoCell, cat. C-28009). For all experiments, HUVEC and hMSC were used at passages </=5, while the malignant cell lines were used at passages </=15. […]

[1] = curve of first compound, second compound 0.1 µM
[2] = curve of first compound, second compound 0.316 µM
[3] = curve of first compound, second compound 1 µM
[4] = curve of first compound, second compound 3.16 µM
[5] = curve of first compound, second compound 10 µM
[6] = second compound 0.1 µM, first compound 0.01 µM
[7] = second compound 0.1 µM, first compound 0.0316 µM
[8] = second compound 0.1 µM, first compound 0.1 µM
[9] = second compound 0.316 µM, first compound 0.01 µM
[10] = second compound 0.316 µM, first compound 0.0316 µM
[11] = second compound 0.316 µM, first compound 0.1 µM
[12] = second compound 1 µM, first compound 0.01 µM
[13] = second compound 1 µM, first compound 0.0316 µM
[14] = second compound 1 µM, first compound 0.1 µM
[15] = second compound 3.16 µM, first compound 0.01 µM
[16] = second compound 3.16 µM, first compound 0.0316 µM
[17] = second compound 3.16 µM, first compound 0.1 µM
[18] = second compound 10 µM, first compound 0.01 µM
[19] = second compound 10 µM, first compound 0.0316 µM
[20] = second compound 10 µM, first compound 0.1 µM
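Note: spheroids exposed to compounds for seven days before readout.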
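Throughout, for viability, T/C: 100% = DMSO vehicle control luminescence of the spheroids.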

SMILES	IC50 [1] [nM]	IC50 [2] [nM]	IC50 [3] [nM]	IC50 [4] [nM]	IC50 [5] [nM]	viability, T/C [6] [%]	viability, T/C [7] [%]	viability, T/C [8] [%]	viability, T/C [9] [%]	viability, T/C [10] [%]	viability, T/C [11] [%]	viability, T/C [12] [%]	viability, T/C [13] [%]	viability, T/C [14] [%]	viability, T/C [15] [%]	viability, T/C [16] [%]	viability, T/C [17] [%]	viability, T/C [18] [%]	viability, T/C [19] [%]	viability, T/C [20] [%]	other results
CC(C)n1nc(-c2ccc3oc(N)nc3c2)c2c(N)ncnc21 + CC1OCC2(CCN(c3cnc(Sc4ccnc(N)c4Cl)c(N)n3)CC2)C1N	17.5	20.5	18.6	15.8	11.3	69.8	29.4	19.9	75.3	34.4	23.2	64.8	36.8	19.6	63.1	30.2	18.4	50.9	31.3	18.1	viability, T/C (second compound 0.1 µM, first compound 0.000316 µM): 103%; viability, T/C (second compound 0.1 µM, first compound 0.001 µM): 98.2%; viability, T/C (second compound 0.1 µM, first compound 0.00316 µM): 89.3%; viability, T/C (second compound 0.316 µM, first compound 0.000316 µM): 101%; viability, T/C (second compound 0.316 µM, first compound 0.001 µM): 99.7%; viability, T/C (second compound 0.316 µM, first compound 0.00316 µM): 88.8%; viability, T/C (second compound 1 µM, first compound 0.000316 µM): 87.1%; viability, T/C (second compound 1 µM, first compound 0.001 µM): 78.5%; viability, T/C (second compound 1 µM, first compound 0.00316 µM): 84.5%; viability, T/C (second compound 3.16 µM, first compound 0.000316 µM): 74.7%; viability, T/C (second compound 3.16 µM, first compound 0.001 µM): 72.5%; viability, T/C (second compound 3.16 µM, first compound 0.00316 µM): 72.3%; viability, T/C (second compound 10 µM, first compound 0.000316 µM): 65%; viability, T/C (second compound 10 µM, first compound 0.001 µM): 71.7%; viability, T/C (second compound 10 µM, first compound 0.00316 µM): 66.6%
CC(=O)OC12COC1CC(O)C1(C)C(=O)C(O)C3=C(C)C(OC(=O)C(O)C(NC(=O)OC(C)(C)C)c4ccccc4)CC(O)(C(OC(=O)c4ccccc4)C21)C3(C)C (configuration not stated) + CC1OCC2(CCN(c3cnc(Sc4ccnc(N)c4Cl)c(N)n3)CC2)C1N	154	175	168	80.1	58.4	99.2	89.1	59.8	93.3	85.8	61.6	80.7	89.6	60.5	73.3	72.3	44.5	64.2	66.4	36.7	viability, T/C (second compound 0.1 µM, first compound 0.316 µM): 33.6%; viability, T/C (second compound 0.1 µM, first compound 1 µM): 24.1%; viability, T/C (second compound 0.1 µM, first compound 3.16 µM): 24%; viability, T/C (second compound 0.316 µM, first compound 0.316 µM): 38.1%; viability, T/C (second compound 0.316 µM, first compound 1 µM): 23.2%; viability, T/C (second compound 0.316 µM, first compound 3.16 µM): 22.6%; viability, T/C (second compound 1 µM, first compound 0.316 µM): 36.1%; viability, T/C (second compound 1 µM, first compound 1 µM): 26.6%; viability, T/C (second compound 1 µM, first compound 3.16 µM): 22.9%; viability, T/C (second compound 3.16 µM, first compound 0.316 µM): 22.3%; viability, T/C (second compound 3.16 µM, first compound 1 µM): 17.1%; viability, T/C (second compound 3.16 µM, first compound 3.16 µM): 18.6%; viability, T/C (second compound 10 µM, first compound 0.316 µM): 21.2%; viability, T/C (second compound 10 µM, first compound 1 µM): 16.1%; viability, T/C (second compound 10 µM, first compound 3.16 µM): 16.1%
CC1OCC2(CCN(c3cnc(Sc4ccnc(N)c4Cl)c(N)n3)CC2)C1N (configuration not stated)	–	–	–	–	–	–	–	–	–	–	–	–	–	–	–	–	–	–	–	–	viability, T/C (compound 0.0316 µM): 91.3% and 92.3% and 111%; viability, T/C (compound 0.1 µM): 96.8% [middle of 19 runs]; viability, T/C (compound 1 µM): 82.1% [middle of 19 runs]; IC50 (compound alone, run of 07/12/2021): > 10000 nM; IC50 (compound alone, run of 07/19/2021): > 10000 nM; IC50 (compound alone, run of 07/26/2021): > 10000 nM and 3880 nM; IC50 (curve of compound): > 10000 nM
